Experiments:
human TRPV4 [1] = biological target: T1, human TRPV4 (Homo sapiens, UniProt Q9HBA0); test: Test Example 1 Measurement of TRPV4 inhibitory activity (IC50 value); format: cell-based; conditions: CHO-K1 cells stably expressing human TRPV4; Fluo 4-AM, FLIPR TETRA; final 1 μmol/L 4α-PDD
T1 construct: expressed in transfected cells; host or cells: CHO-K1
Procedure: (§1) For each compound, TRPV4 inhibitory activity was measured using cells. (Method) TRPV4 inhibitory activity of the compound was evaluated in accordance with the following procedure.
(§2) (1) The TRPV4 inhibitory activity was measured using CHO-K1 cells stably expressing human TRPV4.
(2) In the day before the experimental day, frozen cell were thawed and washed with the culture medium (MEM-α, 10% FBS, 2 mmol/L GlutaMax, 50 unit Penicillin, 50 μg/mL Streptomycin, 20 mmol/L HEPES). Then cells were suspended in the culture medium.
(3) The 384-well plates which hTRPV4/CHO cells were seeded at densities of 4000 cells/well in the culture medium and cultured in a CO2 incubator in the presence of 5% CO2 at 37° C. for overnight was used as assay plates.
(4) The assay plate was washed with assay buffer (Hanks, 20 mmol/L HEPES, 2.5 mmol/L probenecid, pH 7.4), and the buffer were remained at 20 μL/well.
(5) 10 μl of dye loading buffer (9 μmol/L Fluo 4-AM, 0.09% Pluronic F-127/assay buffer) was added to each well, then the assay plate was incubated in a CO2 incubator in the presence of 5% CO2 at 37° C. for one hour (final 3 μmol/L Fluo4-AM).
(6) The assay plate was washed with the assay buffer, and the buffers were remained at 20 μL/well. Then the assay plate was incubated for 10 min at room temperature.
(7) 20 μL/well of diluted compound solution was dispensed to each well in the compound plate, and mixed with built-in Pipette and Mixer of the Fluorescence analysis system FLIPR TETRA (Molecular devices).
(8) After incubation for 5 min, 20 μL/well of 4α-PDD solution were applied to each well of assay plate and mixed with the FLIPR TETRA (final 1 μmol/L 4α-PDD).
(9) The fluorescent intensity was measured with FLIPR TETRA system for 5 min from the point of time addition the compound solution, at Ex 470-495 nm, Em 515-575 nm wavelength.
(§3) In addition, TRPV4 inhibitory activity (IC50 value) of a compound was evaluated according to the following procedure.
(10) In the presence of the compound, the difference between maximal and minimal of fluorescent intensity value for 5 min from just before addition of 4α-PDD solution was calculated, and it was referred as Max−Min value. Max−Min value of the compound A at 1 μmol/L was defined as 100% inhibitory activity, Max−Min value in the absence of the compound was defined as 0% inhibitory activity. The TRPV4 inhibitory activity of the compound was calculated by the following formula. Inhibition ratio=(1−(Max−Min value of the compound−100% inhibitory activity)/(0% inhibitory activity−100% inhibitory activity))×100
Herein, the compound A is the compound I-186 described in PCT/JP2013/058722.
(11) Inhibitory activity was calculated at 10 points with three fold serial dilution, in the final concentration of the compound from 10 μmol/L to 0.5 nmol/L, the IC50 value (nmol/L) was calculated by logistic approximation method.

[2] = Test Example 7 Metabolism stability test; format: in vitro ADME; conditions: 0.5 μmol/L of test compound, human liver microsomes 0.5 mg protein/mL, 37° C.
Procedure: Using commercially available pooled human hepatic microsomes, a compound of the present invention was reacted for a constant time, and a remaining rate was calculated by comparing a reacted sample and an unreacted sample, thereby, a degree of metabolism in liver was assessed.
A reaction was performed (oxidative reaction) at 37° C. for 0 minute or 30 minutes in the presence of 1 mmol/L NADPH in 0.2 mL of a buffer (50 mmol/L Tris-HCl pH 7.4, 150 mmol/L potassium chloride, 10 mmol/L magnesium chloride) containing 0.5 mg protein/mL of human liver microsomes. After the reaction, 50 μL of the reaction solution was added to 100 μL of a methanol/acetonitrile=1/1 (v/v), mixed and centrifuged at 3000 rpm for 15 minutes. The compound of the present invention in the supernatant was quantified by LC/MS/MS, and a remaining amount of the compound of the present invention after the reaction was calculated, letting a compound amount at 0 minute reaction time to be 100%. Hydrolysis reaction was performed in the absence of NADPH and glucuronidation reaction was in the presence of 5 mmol/L UDP-glucuronic acid in place of NADPH, followed by similar operations. (Result) % inhibition was shown at 0.5 μmol/L of test compound.

[3] = biological target: T2, human ether-a-go-go related gene (hERG) channel (Homo sapiens, UniProt Q12809); test: Test Example 8 hERG test; format: cell-based; conditions: 1 μmol/L of test compound; CHO cells expressing hERG; whole cell patch clamp (QPatch)
T2 construct: expressed in transfected cells; host or cells: CHO
T2 sequence (Q12809 whole entry): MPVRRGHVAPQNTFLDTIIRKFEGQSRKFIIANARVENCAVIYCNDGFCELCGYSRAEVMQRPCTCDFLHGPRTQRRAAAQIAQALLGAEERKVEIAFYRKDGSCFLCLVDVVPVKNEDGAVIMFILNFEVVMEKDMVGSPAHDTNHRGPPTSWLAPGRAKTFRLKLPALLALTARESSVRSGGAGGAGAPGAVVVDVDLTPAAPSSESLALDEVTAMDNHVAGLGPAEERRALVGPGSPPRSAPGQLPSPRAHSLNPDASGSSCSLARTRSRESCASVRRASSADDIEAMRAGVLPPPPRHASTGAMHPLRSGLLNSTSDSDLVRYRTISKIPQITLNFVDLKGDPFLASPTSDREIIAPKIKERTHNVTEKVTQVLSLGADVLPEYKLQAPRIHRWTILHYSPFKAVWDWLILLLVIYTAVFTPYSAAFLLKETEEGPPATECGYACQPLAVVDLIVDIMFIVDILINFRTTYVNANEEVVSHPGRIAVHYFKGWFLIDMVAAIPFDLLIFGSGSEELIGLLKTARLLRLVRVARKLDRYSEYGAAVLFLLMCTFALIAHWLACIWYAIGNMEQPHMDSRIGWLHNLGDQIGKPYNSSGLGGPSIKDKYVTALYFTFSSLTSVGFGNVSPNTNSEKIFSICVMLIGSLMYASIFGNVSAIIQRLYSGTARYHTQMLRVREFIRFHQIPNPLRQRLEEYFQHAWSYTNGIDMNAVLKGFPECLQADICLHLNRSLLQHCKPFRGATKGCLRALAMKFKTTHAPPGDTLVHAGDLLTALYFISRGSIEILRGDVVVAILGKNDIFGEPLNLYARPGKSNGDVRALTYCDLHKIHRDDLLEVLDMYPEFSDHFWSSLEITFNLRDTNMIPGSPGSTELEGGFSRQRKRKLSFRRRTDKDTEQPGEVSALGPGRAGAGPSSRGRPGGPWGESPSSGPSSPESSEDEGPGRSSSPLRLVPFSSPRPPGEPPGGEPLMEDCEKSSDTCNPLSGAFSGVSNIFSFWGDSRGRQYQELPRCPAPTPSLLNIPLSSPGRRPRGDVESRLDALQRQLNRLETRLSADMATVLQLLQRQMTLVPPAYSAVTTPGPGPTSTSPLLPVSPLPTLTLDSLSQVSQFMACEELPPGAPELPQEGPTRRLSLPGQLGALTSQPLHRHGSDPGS
From the text: For the purpose of assessing risk of an electrocardiogram QT interval prolongation of the compound of the present invention, effects of the compound of the present invention on delayed rectifier K^+ current (IKr), which plays an important role in the ventricular repolarization process, was studied using CHO cells expressing human ether-a-go-go related gene (hERG) channel.
After a cell was retained at a membrane potential of −80 mV by whole cell patch clamp method using an automated patch clamp system (QPatch; Sophion Bioscience A/S), IKr induced by depolarization pulse stimulation at +20 mV for 2 seconds and, further, repolarization pulse stimulation at −50 mV for 2 seconds, was recorded. […] From the recording IKr, an absolute value of the tail peak current was measured based on the current value at the resting membrane potential using analysis software (Falster Patch; Sophion Bioscience A/S). Further, the % inhibition relative to the tail peak current before application of the compound of the present invention was calculated, and compared with the vehicle-applied group (0.1% dimethyl sulfoxide solution) to assess influence of the compound of the present invention on IKr. […]

CYP3A4 = biological target: T3, CYP3A4 (Homo sapiens, UniProt P08684); test: Test Example 3 CYP3A4 fluorescent MBI test; format: in vitro ADME; conditions: CYP3A4 expressed in Escherichia coli; substrate 7-BFC; pre-reaction time 0 or 30 minutes
T3 construct: host or cells: Escherichia coli
T3 sequence (P08684 whole entry): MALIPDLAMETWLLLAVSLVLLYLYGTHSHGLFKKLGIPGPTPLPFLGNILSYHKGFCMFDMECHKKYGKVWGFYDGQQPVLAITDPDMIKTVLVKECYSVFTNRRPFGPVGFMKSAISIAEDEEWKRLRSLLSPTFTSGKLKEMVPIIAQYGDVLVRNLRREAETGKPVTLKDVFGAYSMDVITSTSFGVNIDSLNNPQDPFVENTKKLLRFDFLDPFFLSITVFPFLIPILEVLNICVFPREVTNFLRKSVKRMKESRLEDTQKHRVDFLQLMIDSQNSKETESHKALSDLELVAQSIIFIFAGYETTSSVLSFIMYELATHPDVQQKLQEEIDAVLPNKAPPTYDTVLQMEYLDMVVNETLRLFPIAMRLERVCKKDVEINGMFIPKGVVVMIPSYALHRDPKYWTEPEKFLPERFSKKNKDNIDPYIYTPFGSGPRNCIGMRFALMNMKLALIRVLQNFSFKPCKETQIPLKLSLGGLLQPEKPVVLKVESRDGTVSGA
Procedure: The CYP3A4 fluorescent MBI test is a test of investigating enhancement of CYP3A4 inhibition of a compound of the present invention by a metabolism reaction, and the test was performed using, as CYP3A4 enzyme expressed in Escherichia coli and employing, as an index, a reaction in which 7-benzyloxytrifluoromethylchmarin (7-BFC) is debenzylated by the CYP3A4 enzyme to produce a metabolite, 7-hydroxytrifluoromethylchmarin (7-HFC) emitting fluorescent light.
The reaction conditions were as follows: substrate, 5.6 μmol/L 7-BFC; pre-reaction time, 0 or 30 minutes; reaction time, 15 minutes; reaction temperature, 25° C. […]
An enzyme in a K-Pi buffer (pH 7.4) and a solution of a compound of the present invention as a pre-reaction mixture were added to a 96-well plate at the above composition of the pre-reaction, a part of it was transferred to another 96-well plate so that it was 1/10 diluted by a substrate in a K-Pi buffer, NADPH as a co-factor was added to initiate a reaction as an index (without preincubation) and, after a predetermined time of a reaction, acetonitrile/0.5 mol/L Tris (trishydroxyaminomethane)=4/1 (v/v) was added to stop the reaction. […] For the plate on which each index reaction had been performed, a fluorescent value of 7-HFC which is a metabolite was measured with a fluorescent plate reader. […]

human TRPV4 [4] = biological target: T1, human TRPV4; test: Test Example 2' Measurement of TRPV4 inhibitory activity (IC50 value); format: cell-based; conditions: CHO-K1 cells stably expressing human TRPV4; DMEM 3% FBS, 3000 cells/well; final 0.15 μmol/L 4α-PDD
Procedure: as §1, §2
(2) In the day before the experimental day, frozen cell were thawed and washed with the culture medium (DMEM, 3% FBS, 2 mmol/L GlutaMax, 50 unit Penicillin, 50 μg/mL Streptomycin, 0.1 mmol/L Non-Essential Amino Acids, 25 mmol/L HEPES). Then cells were suspended in the culture medium. […] (7) 20 μL/well of diluted compound solution was dispensed to each well in the compound plate, and mixed with built-in Pipette and Mixer of the Fluorescence analysis system FLIPR TETRA (Molecular devices). […] (9) The fluorescent intensity was measured with FLIPR TETRA system for 5 min from the point of time addition the compound solution, at Ex 470-495 nm, Em 515-575 nm wavelength.
as §3
(10) In the presence of the compound, the difference between maximal and minimal of fluorescent intensity value for 5 min from just before addition of 4α-PDD solution was calculated, and it was referred as Max−Min value. […] The TRPV4 inhibitory activity of the compound was calculated by the following formula. […]

T1 sequence (Q9HBA0 whole entry): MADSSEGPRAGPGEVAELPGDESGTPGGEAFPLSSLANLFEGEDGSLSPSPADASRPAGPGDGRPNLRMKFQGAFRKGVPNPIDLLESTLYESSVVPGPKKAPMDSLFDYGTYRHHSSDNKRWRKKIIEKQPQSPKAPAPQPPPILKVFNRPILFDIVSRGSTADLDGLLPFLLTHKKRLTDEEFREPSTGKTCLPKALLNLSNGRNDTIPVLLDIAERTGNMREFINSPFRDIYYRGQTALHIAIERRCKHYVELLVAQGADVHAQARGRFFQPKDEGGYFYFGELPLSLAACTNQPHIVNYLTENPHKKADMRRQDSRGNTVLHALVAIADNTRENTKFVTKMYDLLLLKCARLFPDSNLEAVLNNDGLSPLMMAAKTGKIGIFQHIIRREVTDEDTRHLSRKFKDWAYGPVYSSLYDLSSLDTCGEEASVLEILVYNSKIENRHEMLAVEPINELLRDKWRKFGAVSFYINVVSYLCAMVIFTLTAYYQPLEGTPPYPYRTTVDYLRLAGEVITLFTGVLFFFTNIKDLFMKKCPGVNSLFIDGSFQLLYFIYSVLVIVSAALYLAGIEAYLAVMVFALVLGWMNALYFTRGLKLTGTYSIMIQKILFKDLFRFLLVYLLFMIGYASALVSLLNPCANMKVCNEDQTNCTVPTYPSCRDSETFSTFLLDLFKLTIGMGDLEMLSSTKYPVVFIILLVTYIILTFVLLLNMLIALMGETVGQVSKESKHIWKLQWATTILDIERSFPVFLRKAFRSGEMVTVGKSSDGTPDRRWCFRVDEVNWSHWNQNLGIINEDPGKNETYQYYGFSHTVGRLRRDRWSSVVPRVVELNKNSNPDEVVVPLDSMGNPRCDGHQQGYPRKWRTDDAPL

IC50 (human TRPV4 [1]) | Percent of compound remaining after 30 min incubation [2] | IC50 (human TRPV4 [4]) | SMILES | hERG % inhibition of tail peak current (IKr) [3] | CYP3A4 fluorescent MBI: difference between IC50 values (CYP3A4)
1.2 nM | 78.6% | – | Cc1nc(C)c(-c2csc(Nc3ccc(CNc4ccc(Cl)cc4F)cn3)n2)s1 [Compound I-48] | 8.1% | –
14 nM | 83.6% | – | Cc1nc(C(C)O)sc1-c1csc(Nc2ccc(CNc3ccc(Cl)cc3F)cn2)n1.Cl.Cl (stereo not shown) [Compound I-157] | – | (−) (when the difference is 3 μmol/L or less, this was defined as (−))
– | – | 2.8 nM | Cc1nc(C)c(-c2csc(Nc3ccc(C(=O)C4CCCC4)cn3)n2)s1 [Compound I-897] | – | –
